The values below come from patent US20210251228A1, “METHODS FOR REPELLING DROSOPHILA SPECIES USING 2-PENTYLFURAN” (The United States of America, as represented by the …, priority 2020, published 2021).

Assay [1] concerns Drosophila suzukii antennae. The assay is described as follows: Coupled GC-EAD of bread dough headspace volatiles on SWD antennae. Conditions: adult female SWD antennae; adsorbent extract of bread dough; authentic standards 10 ng/μl. As for the experimental part: Adsorbent Sampling from Bread Dough: The bread dough bait consisted of whole-wheat flour (17.25 g), sugar (2 g), dry active bread yeast (0.325 g), apple cider vinegar (1 ml), and water (25 ml) (Cha, D. H., et al., J. Econ. Entomol., 111: 645-652 (2018a)). Headspace volatiles were collected from 10 g bread dough ball placed in a screened specimen cup (130 ml) by using 2.41 closed volatile collection chambers (ARS, Inc., Gainesville, Fla.) with one air inlet adapter (7 mm ID) on the top and an outlet adapter (7 mm ID) on the bottom wall. Clean air from a filtering and delivery system (ARS Inc., Gainesville, Fla.) was pushed into the chamber at 0.7 L/min through the top inlet port, and volatiles from the dough were pushed out through volatile traps (activated charcoal adsorbent filters, ORBO™32-small, Supelco Inc., Bellefonte, Pa.) on the bottom of the chamber. An additional ORBO™ filter was used to ensure that no breakthrough occurred. For each sample of dough (2 dough samples total), adsorbent collections were made over a 2-day period at room temperature using the same volatile trap. Volatiles were eluted with 600 μl methylene chloride every 24 h from the filters of a given dough sample and combined across the total of the collecting days (from 2 dough samples). The combined extract was kept at −20° C. and subjected to as chromatography-electroantennographic detection (GC-EAD) and gas chromatography-mass spectrometry (GC-MS) analyses.
Coupled Gas Chromatographic-Electroantennographic Detection (GC-EAD): Coupled GC-EAD analysis was performed as described previously (Cha, D. H., J. Chem. Ecol., 34: 1180-1189 (2008); Cha, D. H., et al., J. Chem. Ecol., 38: 1419-1431 (2012)) using a Hewlett Packard 5890 Series II gas chromatograph equipped with either a non-polar DB-5 ms capillary column (30 m×0.25 mm ID, 0.25 μm film thickness; Agilent Technologies, Wilmington, Del.) or polar DB-WAXetr capillary column (30 m×0.25 mm ID, 0.25 μm film thickness; Agilent Technologies, Wilmington, Del.) in the splitless mode with 1 min sampling time. The oven temperature was programmed at 40° C. for 5 min, then increased by 15° C./min to 250° C., and held for 5 min. Injector and detector temperatures were set at 250° C. Nitrogen gas was the carrier at a flow of 2 ml/min. The column effluent was split 1:1 in the oven via a “Y” glass splitter (Supelco). One arm of the splitter led to the flame ionization detector (FID) (250° C.) and the other to the heated EAD port (250° C.). Whole head preparations were made of individual flies, age 5-9 day, for GC-EAD analysis (Cha et al. 2012). The head was separated from the body and its antennae positioned between two gold wire electrodes immersed in saline filled (Drosophila ringer solution; 46 mmol NaCl, 182 mmol KCl, 3 mmol CaCl2, and 10 mmol Tris HCl at pH 7.2) micropipettes in an acrylic holder. The antennal holder was placed inside a humidified condenser and maintained at 5° C. The output signal from the antenna was amplified by a customized high input impedance DC amplifier and recorded on an HP 3390A integrator.
Chemical Analysis: GC-MS was carried out with an Agilent 5975MS coupled with a Agilent 6890GC equipped with either a DB-5 ms capillary column (30 m×0.25 mm ID, 0.25 μm film thickness; Agilent Technologies, Wilmington, Del.) or DB-WAXetr capillary column (30 m×0.25 mm ID, 0.25 μm film thickness; Agilent Technologies, Wilmington, Del.). Helium was the carrier gas (1.0 ml/min constant flow). The GC temperature program was the same as used for the GC-EAD analyses. The MS transfer-line was held at 260° C., the MS source at 230° C., and the MS quad at 150° C. Mass spectra were taken in EI mode (at 70 eV) in the range from 40 m/z to 350 m/z with a scanning rate of 4.58 scan/s. GC-MS data were processed with the MDS-Chemstation software (Agilent Technologies). […]

For a further assay, the system named is Drosophila suzukii. The assay is described as follows: Field test 2 with known 2-pentylfuran release rate: SWD infestation of field raspberries. Type of assay: in vivo. Conditions: 14.18 mg/h from two sachets, 48 h, N=15. As for the experimental part: Field test 2 with known 2-pentylfuran release rate: We evaluated the effect of a known release rate of 2-pentylfuran on SWD infestation using 15 small plots of primocane raspberries (each plot=three 7 m rows of Heritage raspberries with 2.4 m between rows and with approximately 11 raspberries planted within each row) planted at different sites on research farms at Cornell AgriTech (plots separated by at least 0.5 km). The plantings were established in 2018 and the trial was conducted in the fall of 2019 as ripe raspberries were present along with high levels of SWD infestations in the area. At each plot we identified two fruiting canes (one for 2-pentylfuran treatment and one for control) that had large green fruit present separated by at least 3 m. After hand removal of any pink or ripe fruit, on 12 Sep. […] Ripe berries were removed from the canes, counted, weighed, placed in rearing cups (540 ml deli cups with approximately 1 cm of water agar at base with a perforated lid), and placed in a walk-in growth chamber (25° C., 55% r.h., 16:8 L:D) for 6 days at which time SWD were enumerated (mostly pupae, a few large larvae). Fruits from canes that were collected to estimate the background level of SWD infestation were evaluated for SWD infestation using the same method as for the canes used to test 2-pentylfuran. […]

With `CCCCCc1ccco1` [2-pentylfuran], the “GC-EAD activity (antennal response)” value in assay [1] was “active”. Further, the “reduction of SWD infestation per berry relative to control” value in the assay with Drosophila suzukii turned out to be 56%.
